In patent US11298367B2, “Prodrugs of substituted triazole derivatives and uses thereof” (Bayer Aktiengesellschaft, priority 2017, dated 2022):

Assays:
vasopressin V2 receptor = target: T1, vasopressin V2 receptor (Rattus norvegicus, UniProt Q00788); test: Diuresis investigations in conscious rats kept in metabolism cages; assay type: in vivo; conditions: Wistar rats, i.v., solvent control = 100%
T1 construct: from tissue; host or cells: whole animal (conscious Wistar rats; renal V2 receptors)
Procedure: B-8. In Vivo Assay for Detecting Vasopressin V2 Receptor-Meidated Effects: Diuresis Investigations in Conscious Rats Kept in Metabolism Cages
Wistar rats (400-500 g body weight) are kept with free access to feed (Altromin) and drinking water. During the experiment, the animals are kept with free access to drinking water for 7 hours individually in metabolism cages suitable for rats of this weight class (Tecniplast Deutschland GmbH, D-82383 Hohenpeißenberg). At the beginning of the experiment, the animals are administered the test substance in a volume of 1 ml/kg body weight of a suitable solvent (2-Hydroxylpropyl-beta-cyclodextrin) by intravenous application. Control animals only receive solvent. Controls and substance tests are carried out in parallel on the same day. Control groups and substance-dose groups each consist of 6 to 8 animals. During the experiment, the urine excreted by the animals is collected continuously in a receiver at the base of the cage. The volume of urine is determined separately for each animal. Before the beginning of the experiment, the body weight of the individual animals is determined.
Following intravenous administration, in comparison with the solvent control applications, a vasopressin V2 receptor blocking compound would bring about an increased excretion of urine, which is based essentially on an increased excretion of water (aquaresis).

[1] = tested on: vasopressin (AVP) mediated changes of systemic and renal hemodynamics; test: Acute effects on vasopressin-mediated changes of systemic hemodynamics, renal blood flow and oxygenation in anesthetized rats; assay type: in vivo, rat; conditions: AVP 50 ng/kg/min + compound 30 μg/kg bolus, mean ± SD, n = 8
Procedure: B-11. Acute Effects on Vasopressin-Mediated Changes of Systemic Hemodynamics, Renal Blood Flow and Oxygenation in Anesthetized Rats
Experiments are performed on male Sprague Dawley rats (Charles River, Deutschland; 350-450 g body weight). In preparation for surgical procedures rats are anesthetized with isoflurane and placed on a heated table to maintain core body temperature at 37° C., assessed using a rectal thermometer inserted. Inhalation anesthesia with isoflurane is applied using a calibrated vaporizer to induce and maintain anesthesia with 5 vol. % and 2 vol. % isoflurane, respectively. A PE50 cannula is placed in the right arteria femoralis for monitoring mean arterial pressure (MAP). Another PE50 catheter is inserted into the vena femoralis for intravenous infusion. The left kidney is exposed by a flank incision and separated from the perirenal attachments. The kidney capsule remains intact. During surgery and the subsequent equilibration and control periods, the rats receive an intravenous infusion of saline (0.9% NaCl) at rate 100 μL/min. Renal measurements of renal blood flow (RBF) are recorded using a laser Doppler blood flow probe (Oxford Optronix, UK) that is attached and stabilized to the surface of the kidney. The probe is inserted into the renal cortex to a depth of 2 mm and another into the renal medulla at 4 mm. The renal blood flow, oxygen and temperature are measured by combined sensor probe (Oxford Optronix, UK). MAP, heart rate (HR), RBF, temperature and oxygen are continuously recorded. After surgery and equilibration, baseline measurements are determined for 20 minutes. The rats are then intravenously infused with vasopressin atrate 50 ng/kg/min in 100 μL/kg for 20 minutes. In the third period, the effect of combined infusion of vasopressin and adual vasopressin receptor antagonist (Example 82 of WO 2016/071212) or a selective V1a antagonist (Example 1) or vehicle that is applied as a bolus in different concentration is determined.

T1 sequence (Q00788 whole entry): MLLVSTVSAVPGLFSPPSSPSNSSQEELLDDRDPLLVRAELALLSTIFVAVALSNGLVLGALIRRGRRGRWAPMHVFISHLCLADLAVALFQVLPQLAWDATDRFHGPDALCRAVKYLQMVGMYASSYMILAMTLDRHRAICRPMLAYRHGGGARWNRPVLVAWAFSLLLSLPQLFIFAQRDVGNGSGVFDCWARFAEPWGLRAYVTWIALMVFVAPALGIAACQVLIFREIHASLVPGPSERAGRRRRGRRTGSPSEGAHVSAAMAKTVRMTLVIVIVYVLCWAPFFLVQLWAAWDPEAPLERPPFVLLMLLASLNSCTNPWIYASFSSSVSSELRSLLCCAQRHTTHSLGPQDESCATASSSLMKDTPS

SMILES | Urinary volume (vasopressin V2 receptor; dosage 0.3 mg/kg) [% vs. control] | Urinary volume (vasopressin V2 receptor; dosage 1.0 mg/kg) [% vs. control] | Urinary volume (vasopressin V2 receptor; dosage 3.0 mg/kg) [% vs. control] | HR (heart rate) [1] [BPM] | MAP (mean arterial blood pressure) [1] [mmHg] | RBF (renal blood flow) [1] [U] | pO2 (partial pressure of renal oxygen) [1] [mmHg]
NC(=O)c1nc(Cn2nc(-c3ccc(Cl)cc3)n(C[C@H](OP(=O)(O)O)C(F)(F)F)c2=O)nn1-c1ncccc1C(F)(F)F [Example 1, (2S)-3-[1-({5-Carbamoyl-1-[3-(trifluoromethyl)pyridin-2-yl]-1H-1,2,4-triazol-3-yl}methyl)-3-(4-chlorophenyl)-5-oxo-1,5-dihydro-4H-1,2,4-triazol-4-yl]-1,1,1-trifluoropropan-2-yl Dihydrogen Phosphate] | 127 | 117 | 108 | 276.20 ± 4.46 | 103.50 ± 4.97 | 877.00 ± 43.01 | 14.32 ± 1.13
NC(=O)c1nc(Cn2nc(-c3ccc(Cl)cc3)n(C[C@H](O)C(F)(F)F)c2=O)nn1-c1ncccc1C(F)(F)F [Example 4A, 3-({3-(4-Chlorophenyl)-5-oxo-4-[(2S)-3,3,3-trifluoro-2-hydroxypropyl]-4,5-dihydro-1H-1,2,4-triazol-1-yl}methyl)-1-[3-(trifluoromethyl)pyridin-2-yl]-1H-1,2,4-triazole-5-carboxamide] | 95 | 154 | 134 | 270.50 ± 2.89 | 114.80 ± 7.42 | 878.10 ± 96.92 | 15.86 ± 4.01
